Experimental data: US4332794A, “6"-Deoxydibekacin, 4",6"-dideoxydibekacin and 1-N-aminoacyl derivatives thereof, and the production of these new compounds” (Zaidan Hojin Biseibutsu Kagaku Kenkyu Kai, priority 1979, dated 1982)
≈ marks a conversion by molar mass, not a printed value. Like-named read-outs stand apart in the source and are kept apart here.

Columns and labels:
Escherichia coli K-12 R5 = assay: microbe, parasite or virus in culture; format: cell-based; conditions: K12R5, 18 h
[1] = tested on: Escherichia coli K-12 LA 290 R56; assay: microbe, parasite or virus in culture; format: cell-based; conditions: K12LA290R56, 18 h
[2] = tested on: Pseudomonas aeruginosa ROS134/PU21; assay: microbe, parasite or virus in culture; format: cell-based; conditions: ROS134/PU21, 18 h
Escherichia coli K-12 = assay: MIC, serial dilution on nutrient agar; format: cell-based; conditions: K12, 18 h
Proteus rettgeri GN311 = assay: MIC, serial dilution on nutrient agar; format: cell-based; conditions: Providencia rettgeri, GN311; nutrient agar, 37° C., 18 hours; read-out: MIC
oto-toxicity = conditions: compounds of this invention
[3] = tested on: Staphylococcus aureus APO1; assay: MIC, serial dilution on nutrient agar; format: cell-based; conditions: APO1, 18 h
[4] = tested on: Escherichia coli K-12 LA 290 R64; assay: MIC, serial dilution on nutrient agar; format: cell-based; conditions: K12LA290R64, 18 h
[5] = tested on: Pseudomonas aeruginosa H9; assay: MIC, serial dilution on nutrient agar; format: cell-based
Providencia Pv 16 = assay: MIC, serial dilution on nutrient agar; format: cell-based
[6] = tested on: Mycobacterium smegmatis ATCC 607; assay: MIC, serial dilution on nutrient agar; format: cell-based; conditions: Mycolicibacterium smegmatis, ATCC607, 18 h
Salmonella typhi F63 = assay: MIC, serial dilution on nutrient agar; format: cell-based; conditions: Salmonella enterica, 18 h
Proteus rettgeri GN466 = assay: MIC, serial dilution on nutrient agar; format: cell-based; conditions: Providencia rettgeri, GN466, 18 h
intravenous LD50 in mice = conditions: mouse, in vivo, estimated
[7] = tested on: Pseudomonas aeruginosa TI-13; assay: MIC, serial dilution on nutrient agar; format: cell-based; conditions: TI13, nutrient agar, 37° C., 18 hours, read-out: MIC
[8] = tested on: Bacillus cereus ATCC 10702; assay: MIC, serial dilution on nutrient agar; format: cell-based
[9] = tested on: Escherichia coli JR66/W677; assay: MIC, serial dilution on nutrient agar; format: cell-based; conditions: JR66/W677, 18 h
[10] = tested on: Salmonella enteritidis 1891; assay: MIC, serial dilution on nutrient agar; format: cell-based; conditions: Salmonella enterica, 18 h
[11] = tested on: Pseudomonas aeruginosa 99; assay: MIC, serial dilution on nutrient agar; format: cell-based; conditions: Pseudomonas aeruginosa, 99; nutrient agar, 37° C., 18 hours; read-out: MIC
[12] = tested on: Klebsiella pneumoniae 22 #3038; assay: MIC, serial dilution on nutrient agar; format: cell-based; conditions: 18 h
Escherichia coli JR255 = assay: microbe, parasite or virus in culture; format: cell-based; conditions: JR255, 18 h
[13] = tested on: Escherichia coli K-12 1410 R81; assay: MIC, serial dilution on nutrient agar; format: cell-based; conditions: K121410R81, 18 h
[14] = tested on: Pseudomonas aeruginosa GN315; assay: MIC, serial dilution on nutrient agar; format: cell-based; conditions: 37° C., 18 hours
Experimental: (§1) The minimum inhibitory concentrations (mcg/ml) of 6"-deoxydibekacin (abbreviated as 6"-DDKB), 4",6"-dideoxydibekacin (abbreviated as 4",6"-DDKB), 1-N-(L-4-amino-2-hydroxybutyryl)-6"-deoxydibekacin (abbreviated as AHB-6"-DDKB) and 1-N-(L-4-amino-2-hydroxybutyryl)-4",6"-dideoxydibekacin (abbreviated as AHB-4",6"-DDKB) of this invention against various microorganisms were determined according to serial dilution method on a nutrient agar medium at 37° C., the estimation being made after 18 hours incubation. For comparison purpose, the minimum inhibitory concentrations of dibekacin (abbreviated as DKB) were also determined in the same manner as stated above.

Providencia 2991 = assay: MIC, serial dilution on nutrient agar; format: cell-based; conditions: 37° C., 18 hours
Experimental: as §1

[15] = tested on: Escherichia coli K-12 ML 1629; assay: MIC, serial dilution on nutrient agar; format: cell-based; conditions: K12ML1629, 37° C., 18 hours
Experimental: as §1

Shigella sonnei JS11746 = assay: MIC, serial dilution on nutrient agar; format: cell-based; conditions: 37° C., 18 hours
Experimental: as §1

Serratia 4 = assay: MIC, serial dilution on nutrient agar; format: cell-based; conditions: 37° C., 18 hours
Experimental: as §1

Serratia SOU = assay: MIC, serial dilution on nutrient agar; format: cell-based; conditions: 37° C., 18 hours
Experimental: as §1

[16] = tested on: Pseudomonas maltophilia GN907; assay: MIC, serial dilution on nutrient agar; format: cell-based; conditions: Stenotrophomonas maltophilia, 37° C., 18 hours
Experimental: as §1

Proteus vulgaris OX19 = assay: MIC, serial dilution on nutrient agar; format: cell-based; conditions: 37° C., 18 hours
Experimental: as §1

[17] = tested on: Klebsiella pneumoniae PCI 602; assay: MIC, serial dilution on nutrient agar; format: cell-based; conditions: PCI602, 37° C., 18 hours
Experimental: as §1

[18] = tested on: Pseudomonas aeruginosa 21-75; assay: MIC, serial dilution on nutrient agar; format: cell-based; conditions: 2175, 37° C., 18 hours
Experimental: as §1

[19] = tested on: Escherichia coli K-12 ML 1630; assay: MIC, serial dilution on nutrient agar; format: cell-based; conditions: K12ML1630, 37° C., 18 hours
Experimental: as §1

[20] = tested on: Staphylococcus aureus 209P; assay: MIC, serial dilution on nutrient agar; format: cell-based; conditions: 37° C., 18 hours
Experimental: as §1

[21] = tested on: Shigella flexneri 4b JS11811; assay: MIC, serial dilution on nutrient agar; format: cell-based; conditions: 4BJS11811, 37° C., 18 hours
Experimental: as §1

[22] = tested on: Escherichia coli K-12 J5B 11-2; assay: MIC, serial dilution on nutrient agar; format: cell-based; conditions: K12J5B112, 37° C., 18 hours
Experimental: as §1

[23] = tested on: Escherichia coli K-12 C 600R/35; assay: MIC, serial dilution on nutrient agar; format: cell-based; conditions: K12C600R/35, 37° C., 18 hours
Experimental: as §1

Serratia marcescens = assay: MIC, serial dilution on nutrient agar; format: cell-based; conditions: 37° C., 18 hours
Experimental: as §1

Escherichia coli NIHJ = assay: MIC, serial dilution on nutrient agar; format: cell-based; conditions: 18 h

SMILES: C[C@H]1O[C@H](O[C@@H]2[C@@H](O)[C@H](O[C@H]3O[C@H](CN)CC[C@H]3N)[C@@H](N)C[C@H]2N)[C@H](O)[C@@H](N)[C@@H]1O [6"-DDKB, 6"-deoxydibekacin]
- MIC (Escherichia coli K-12 R5): 100 µg/mL (≈ 230 µM)
- MIC [1]: 25 µg/mL (≈ 57.4 µM)
- MIC [2]: > 100 µg/mL
- MIC (Escherichia coli K-12): 1.56 µg/mL (≈ 3.58 µM)
- MIC (Proteus rettgeri GN311): 6.25 µg/mL (≈ 14.4 µM)
- oto-toxicity (oto-toxicity): low oto-toxicity
- MIC [3]: 3.13 µg/mL (≈ 7.19 µM)
- MIC [4]: 25 µg/mL (≈ 57.4 µM)
- MIC ([5]; H9, nutrient agar, 37° C., 18 hours, read-out: MIC): 12.5 µg/mL (≈ 28.7 µM)
- MIC (Providencia Pv 16; PV16, 18 h): > 100 µg/mL
- MIC [6]: 0.78 µg/mL (≈ 1.79 µM)
- MIC (Salmonella typhi F63): 0.39 µg/mL (≈ 0.895 µM)
- MIC (Proteus rettgeri GN466): 3.13 µg/mL (≈ 7.19 µM)
- LD50 (intravenous LD50 in mice): > 60 mg/kg
- MIC [7]: 12.5 µg/mL (≈ 28.7 µM)
- MIC ([8]; ATCC10702, nutrient agar, 37° C., 18 hours, read-out: MIC): 6.25 µg/mL (≈ 14.4 µM)
- MIC [9]: 100 µg/mL (≈ 230 µM)
- MIC [10]: 3.13 µg/mL (≈ 7.19 µM)
- MIC [11]: 12.5 µg/mL (≈ 28.7 µM)
- MIC [12]: 100 µg/mL (≈ 230 µM)
- MIC (Escherichia coli JR255): > 100 µg/mL
- MIC [13]: 1.56 µg/mL (≈ 3.58 µM)
- MIC [14]: 100 µg/mL (≈ 230 µM)
- MIC (Providencia 2991): > 100 µg/mL
- MIC [15]: 1.56 µg/mL (≈ 3.58 µM)
- MIC (Shigella sonnei JS11746): 3.13 µg/mL (≈ 7.19 µM)
- MIC (Serratia 4): 100 µg/mL (≈ 230 µM)
- MIC (Serratia SOU): > 100 µg/mL
- MIC [16]: > 100 µg/mL
- MIC (Proteus vulgaris OX19): 0.39 µg/mL (≈ 0.895 µM)
- MIC [17]: 1.56 µg/mL (≈ 3.58 µM)
- MIC [18]: > 100 µg/mL
- MIC [19]: 3.13 µg/mL (≈ 7.19 µM)
- MIC [20]: 0.78 µg/mL (≈ 1.79 µM)
- MIC [21]: 3.13 µg/mL (≈ 7.19 µM)
- MIC [22]: 1.56 µg/mL (≈ 3.58 µM)
- MIC [23]: 3.13 µg/mL (≈ 7.19 µM)
- MIC (Serratia marcescens): 100 µg/mL (≈ 230 µM)
- MIC (Escherichia coli NIHJ): 1.56 µg/mL (≈ 3.58 µM)

SMILES: C[C@@H]1C[C@H](N)[C@@H](O)[C@@H](O[C@@H]2[C@@H](O)[C@H](O[C@H]3O[C@H](CN)CC[C@H]3N)[C@@H](N)C[C@H]2NC(=O)[C@@H](O)CCN)O1 [AHB-4",6"-DDKB, 1-N-(L-4-amino-2-hydroxybutyryl)-4",6"-dideoxydibekacin]
- MIC (Escherichia coli K-12 R5): 100 µg/mL (≈ 192 µM)
- MIC [1]: 1.56 µg/mL (≈ 3 µM)
- MIC [2]: > 100 µg/mL
- MIC (Escherichia coli K-12): 1.56 µg/mL (≈ 3 µM)
- MIC (Proteus rettgeri GN311): 25 µg/mL (≈ 48 µM)
- oto-toxicity (oto-toxicity): low oto-toxicity
- MIC [3]: 1.56 µg/mL (≈ 3 µM)
- MIC [4]: 0.78 µg/mL (≈ 1.5 µM)
- MIC ([5]; H9, 18 h): 6.25 µg/mL (≈ 12 µM)
- MIC (Providencia Pv 16; PV16, nutrient agar, 37° C., 18 hours, read-out: MIC): 25 µg/mL (≈ 48 µM)
- MIC [6]: 0.39 µg/mL (≈ 0.749 µM)
- MIC (Salmonella typhi F63): 0.39 µg/mL (≈ 0.749 µM)
- MIC (Proteus rettgeri GN466): 3.13 µg/mL (≈ 6.01 µM)
- LD50 (intravenous LD50 in mice): > 80 mg/kg
- MIC [7]: 25 µg/mL (≈ 48 µM)
- MIC ([8]; ATCC10702, 18 h): 1.56 µg/mL (≈ 3 µM)
- MIC [9]: 3.13 µg/mL (≈ 6.01 µM)
- MIC [10]: 6.25 µg/mL (≈ 12 µM)
- MIC [11]: 12.5 µg/mL (≈ 24 µM)
- MIC [12]: 3.13 µg/mL (≈ 6.01 µM)
- MIC (Escherichia coli JR255): 1.56 µg/mL (≈ 3 µM)
- MIC [13]: 1.56 µg/mL (≈ 3 µM)
- MIC [14]: 100 µg/mL (≈ 192 µM)
- MIC (Providencia 2991): 100 µg/mL (≈ 192 µM)
- MIC [15]: 1.56 µg/mL (≈ 3 µM)
- MIC (Shigella sonnei JS11746): 3.13 µg/mL (≈ 6.01 µM)
- MIC (Serratia 4): 6.25 µg/mL (≈ 12 µM)
- MIC (Serratia SOU): > 100 µg/mL
- MIC [16]: > 100 µg/mL
- MIC (Proteus vulgaris OX19): 0.39 µg/mL (≈ 0.749 µM)
- MIC [17]: 0.78 µg/mL (≈ 1.5 µM)
- MIC [18]: > 100 µg/mL
- MIC [19]: 1.56 µg/mL (≈ 3 µM)
- MIC [20]: 0.78 µg/mL (≈ 1.5 µM)
- MIC [21]: 6.25 µg/mL (≈ 12 µM)
- MIC [22]: 1.56 µg/mL (≈ 3 µM)
- MIC [23]: 0.78 µg/mL (≈ 1.5 µM)
- MIC (Serratia marcescens): 100 µg/mL (≈ 192 µM)
- MIC (Escherichia coli NIHJ): 1.56 µg/mL (≈ 3 µM)
